In patent US20090156477A1, “Compositions and Methods for Regulating Inflammatory Responses” (Massachusetts Institute of Technology, priority 2005, published 2009):

B1: FGF7: Recombinant human FGF7 from Sigma (protein, UniProt P21781 32-194, looked up)
Fibroblast growth factor 7: CNDMTPEQMATNVNCSSPERHTRSYDYMEGGDIRVRRLFCRTQWYLRIDKRGKVKGTQEMKNNYNIMEIRTVAVGIVAIKGVESEFYLAMNKEGKLYAKKECNEDCNFKELILENHYNTYASAKWTHNGGEMFVALNQKGIPVRGKKTKKEQKTAHFLPMAIT

System: β-catenin
Test: Immunohistochemistry for β-catenin in Caco-2 cells
Type: cell-based, human
Conditions: compared to PBS treatment
Experimental: Caco-2 cells were grown to just prior to confluency on collagen IV coated glass slides. Cells were treated with PBS, FGF1, FGF2 and FGF7, and were incubated at 37° C. in a 5% CO2 humidified incubator for 1 hour, 4 hours, 24 hours or 48 hours, as noted. Cells were washed with PBS, fixed with 3.7% formalin for 10 minutes and washed again with PBS. Cells were treated with 0.1% Triton x-100 for 5 minutes to extract lipids. Cells were washed with PBS and preincubated with PBS supplemented with 1% bovine serum albumin. Primary antibodies were added for 4 hours at room temperature, and cells were washed with PBS. Primary antibodies used were as follows: rabbit anti-human ZO-1 (1:160; Zymed Laboratories, San Francisco, Calif.); mouse anti-human syndecan-1 (1:300; Santa Cruz Biotechnology); goat anti-human Fz-1 (1:125; Santa Cruz Biotechnology); rabbit anti-human caveolin-1 (1:250; Santa Cruz Biotechnology); goat anti-human glypican-1 (1:100; Santa Cruz Biotechnology); mouse anti-human E-cadherin (1:250; Zymed Laboratories); rabbit anti-human β-catenin (1:125; Cell Signaling Technology, Beverly, Mass.); and rabbit anti-human phospho-β-catenin (Ser33/37/Thr41; 1:125; Cell Signaling Technology, Beverly, Mass.).
Cells were then treated with secondary antibodies, Texas Red-labeled phalloidin (Molecular Probes, Eugene, Oreg.) or FLAER-FL1 (1:400; Protox Biotech, Victoria, BC, Canada) as appropriate for 1 hour in the dark at room temperature. […]
Cells, except those stained with phalloidin, were washed with PBS and stained with diamidino-2-phenylindole (DAPI) for 5 minutes at room temperature (Molecular Probes). […] Cells were examined by confocal microscopy (ZO-1 and phalloidin only), or by fluorescence microscopy. A Nikon HB10101AF fluorescence microscope was used and images were captured at room temperature using a Hitachi HVC20 camera and Scion image acquisition software. […]

Row | Molecule | cytoplasmic β-catenin after 24 hours
1 | FGF1: Recombinant human FGF1 from Amgen | potentially reduced levels of cytoplasmic β-catenin
2 | FGF2: Recombinant human FGF2, produced as described | induced markedly increased cytoplasmic β-catenin
3 | B1 | induced markedly increased cytoplasmic β-catenin

System: Fz1
Test: RT-PCR expression in Caco-2 cells after FGF treatment: Fz1
Type: cell-based, human
Conditions: normalized to PBS treatment, defined as 1.0
Excerpt: Five μg of total RNA was isolated from Caco-2 cells using Trizol reagent (Life Tech, Rockville, Md.) followed by reverse transcription with random hexamers. Specific oligomers were designed based on published sequences in order to detect the expression of specific human Wnt, Fz and syndecan isoforms. Sequences of primer pairs were as follows: Wnt-1: 5′-CACGACCTCGTCTACTTCGAC-3′ (SEQ ID NO: 17) and 5′-ACAGACACTCGTGCAGTACGC-3′ (SEQ ID NO: 18); Wnt-2: 5′-CATGGTGGTACATGAGAGCTAC-3′ (SEQ ID NO: 19) and 5′-GGCAAATACAACTCCAGCTGAG-3′ (SEQ ID NO: 20); Wnt-3: 5′-GAGAGCCTCCCCGTCCACAG-3′ (SEQ ID NO: 21) and 5′-CTGCCAGGAGTGTATTCGCATC-3′ (SEQ ID NO: 22); Wnt-3a: 5′-CAGGAACTACGTGGAGATCATG-3′ (SEQ ID NO: 23) and 5′-CCATCCCACCAAACTCGATGTC-3′ (SEQ ID NO: 24); Fz-1: 5′-GAACTTTCCTCCAACTTCATGGC-3′ (SEQ ID NO: 25) and 5′-CATTTCCATTTTACAGACCGG-3′ (SEQ ID NO: 26); Fz-2: 5′-GGTGAGCCAGCACTGCAAGAG-3′ (SEQ ID NO: 27) and 5′-CCTAAAAGTGAAATGGTTTCGATCG-3′ (SEQ ID NO: 28); Fz-10: 5′-ACACGTCCAACGCCAGCATG-3′ (SEQ ID NO: 29) and 5′-ACGAGTCATGTTGTAGCCGATG-3′ (SEQ ID NO: 30); and Syndecan-1/Sdc-1/CD138: 5′-CTTCACACTCCCCACACAGA-3′ (SEQ ID NO: 31) and 5′-TCCTGTTTGGTGGGCTTCTG-3′ (SEQ ID NO: 32). To control for total cell […], RT-PCR was also performed on β-actin using the primers 5′-GCCAGCTCACCATGGATGATGATAT-3′ (SEQ ID NO: 33) and 5′-GCTTGCTGATCCACATCTGCTGGAA-3′ (SEQ ID NO: 34). PCR was performed using the Advantage-GC cDNA kit from Clontech as per manufacturer's instructions (Palo Alto, Calif.).

Row | Molecule | Fz1 expression (intensity of RT-PCR images)
4 | FGF1: Recombinant human FGF1 from Amgen | 1.5
5 | FGF2: Recombinant human FGF2, produced as described | 1.1
6 | B1 | 2.4
